Test results published in paper PMC7738205 (Cell Cycle, 2020).
Entries after “also recorded” stand apart in the source; their conditions may differ.

Experiments:
[1] = test system: SARS-CoV-2 strain USA-WA1/2020; format: cell-based; details: dNHBE cells, conversion of 5.55 µM
[2] = test system: human bronchial epithelial lining cells; experiment: Cytotoxicity in human bronchial epithelial lining cells; format: cell-based
MA-104 cells = details: visual or neutral red reads
[3] = test system: human epithelial airway cells; details: 1 µM dose; cited from earlier work

Compound | average EC90 expressed [1] | observed cytotoxicity at highest dose given ([2]; 30 µM) | cytotoxicity to MA-104 cells (MA-104 cells) | toxicity in human epithelial airway cells [3] | observed cytotoxicity at highest dose given ([2]; 1.66 µM)
CC#C[C@]1(O)CCC2C3CCC4=CC(=O)CCC4=C3[C@@H](c3ccc4c(c3)OCO4)C[C@@]21C (some centres unmarked) [PT150] | 3.13 µg/mL | No cytotoxicity; also recorded: no observed cytotoxicities | significant cytotoxicity | absence of toxicity | 
CCC(CC)COC(=O)[C@H](C)N[P@](=O)(OC[C@H]1O[C@@](C#N)(c2ccc3c(N)ncnn23)[C@H](O)[C@@H]1O)Oc1ccccc1 [Remdesivir, reference compound] |  |  |  |  | no observed cytotoxicities
